Source: US7741361B2, “Glucocorticoid mimetics, methods of making them, pharmaceutical compositions, and uses thereof” (Boehringer Ingelheim Pharmaceuticals, Inc., priority 2004, dated 2010)

Each compound was assayed on glucocorticoid receptor (assay: Glucocorticoid receptor cell assays (agonist activity in one or more of the above assays)). Conditions: assay not specified.
Format: cell-based
Description: B. Glucocorticoid Receptor Cell Assays
1. Induction of Aromatase in Fibroblasts (Cell Assay for Transactivation)
Dexamethasone, a synthetic ligand to the glucocorticoid receptor (GR), induces expression of aromatase in human foreskin fibroblast cells. The activity of aromatase is measured by the conversion of testosterone to estradiol in culture media.
Human foreskin fibroblast cells (ATCC Cat. No. CRL-2429, designation CCD112SK) are plated on 96 well plates at 50,000 cells per well 5 days before use, in Iscove's Modified Dulbecco's Media (GibcoBRL Life Technologies Cat No. 12440-053) supplemented with 10% charcoal filtered FBS (Clonetech Cat No. SH30068) and Gentamycin (GibcoBRL Life Technologies Cat. No. 15710-064). On the day of the experiment, the media in the wells is replaced with fresh media. Cells are treated with test compounds to final concentrations of 10^−5 M to 10^−8 M, and testosterone to a final concentration of 300 ng/mL. Each well has a total volume of 100 μL. Samples are made in duplicates. Control wells include: (a) wells that receive testosterone only, and (b) wells that receive testosterone plus 2 μM of dexamethasone to provide maximum induction of aromatase. Plates are incubated at 37° C. overnight (15 to 18 hours), and supernatants are harvested at the end of incubation. Estradiol in the supernatant is measured using ELISA kits for estradiol (made by ALPCO, obtained from American Laboratory Products Cat. No. 020-DR-2693) according to the manufacture's instruction. The amount of estradiol is inversely proportional to the ELISA signals in each well. The extent of aromatase induction by test compounds is expressed as a relative percentage to dexamethasone. EC50 values of test compounds are derived by non-linear curve fitting.
2. Inhibition of IL-6 Production in Fibroblasts (Cell Assay for Transrepression)
Human foreskin fibroblast cells produce IL-6 in response to stimulation by pro-inflammatory cytokine IL-1.
Human foreskin fibroblast cells (ATCC Cat. No. CRL-2429) are plated on 96 well plates at 5,000 cells per well the day before use, in Iscove's Modified Dulbecco's Media (GibcoBRL Life Technologies Cat. No. 12440-053) supplemented with 10% charcoal filtered FBS (Clonetech Cat. No. SH30068) and Gentamycin (GibcoBRL Life Technologies Cat. No. 15710-064). On the next day, media in the wells is replaced with fresh media. […] IL-6 levels in the supernatants are determined by the ELISA kits for IL-6 (MedSystems Diagnostics GmbH, Vienna, Austria, Cat. No. BMS213TEN) according to manufacture's instructions. […]
Evaluation of agonist or antagonist activity of compounds binding to the glucocorticoid receptor may be determined by any of the assays. […]

Compound | activity as an agonist of the glucocorticoid receptor function
Cc1cc(C)c(S(=O)(=O)NC(Cc2c[nH]c3ccccc23)C(F)(F)F)c(C)c1 (stereo not shown) [2,4,6-Trimethyl-N-[2,2,2-trifluoro-1-(1H-indol-3-ylmethyl)ethyl]benzenesulfonamide] | activity as an agonist
Cc1cc(C)c(S(=O)(=O)NC(Cc2c[nH]c3ccc(C)cc23)C(F)(F)F)c(C)c1 (stereo not shown) [2,4,6-Trimethyl-N-[2,2,2-trifluoro-1-(5-methyl-1H-indol-3-ylmethyl)ethyl]benzenesulfonamide] | activity as an agonist
Nc1cc(Cl)cc(Cl)c1S(=O)(=O)NC(Cc1c[nH]c2ccccc12)C(F)(F)F (stereo not shown) [2-Amino-4,6-dichloro-N-[2,2,2-trifluoro-1-(1H-indol-3-ylmethyl)ethyl]benzenesulfonamide] | activity as an agonist
Cc1ccc2[nH]cc(CC(NS(=O)(=O)c3c(N)cc(Cl)cc3Cl)C(F)(F)F)c2c1 (stereo not shown) [2-Amino-4,6-dichloro-N-[2,2,2-trifluoro-1-(5-methyl-1H-indol-3-ylmethyl)ethyl]benzenesulfonamide] | activity as an agonist
